The target of the test is Human Polθ polymerase domain (aa1820-2590) (Homo sapiens (Human), UniProt O75417). The test is described as follows: Polθ Polymerase Domain WT Ki Assay (PicoGreen assay). Type of test: biochemical. The settings on record: average of repeat determinations; 100 nM DNA substrate, 50 μM dNTPs, 0.156 nM Polθ. The procedure:
A PicoGreen assay was used to measure the K, values of reversible compounds that inhibit the activity of Polθ in vitro.
Human Polθ polymerase domain (aa1820-2590) was expressed in E. Coli, purified, aliquoted and stored at −80° C. until required. Polθ substrate was generated from a 1.2:1 mix of DNA II Short to DNA II Long to give a final concentration of […] substrate in annealing buffer (20 mM Tris pH 7.5, 50 mM NaCl). The substrate was heated in 50 mL aliquots to 95° C. in a heating block for 5 min before the heating block switched off, the reaction left to cool to rt and stored at −20° C. until required.
Assay measurements were performed with 1× buffer comprising 25 mM Tris pH 7.5, 12.5 mM NaCl, […], 5% (v/v) glycerol, 0.01% v/v Triton x-100, 0.1 mg/ml BSA, 1 mM DTT. […]
To stop the reaction, 5 μL of a solution containing 25 mM Tris-HCl pH 7.5 and 20 mM EDTA was added at […] (t=0, 15, 30, 60, 90, 120, 150, 180 mins) using the Tempest's time delay function. […] After completing the assay, 5 μL of detection reagent (25 mM Tris-HCl pH 7.5 and 2.5% (v/v) PicoGreen) was dispensed into the wells using a Tempest liquid handler (Formulatrix) and plates subsequently read on the CLARIOstar Plus (BMG Labtech) using the default optical settings for fluorescein and the auto gain/focus settings. […]

Structures are written as SMILES. pKi: −log10 of the molar value.

Chain of Human Polθ polymerase domain (aa1820-2590) (O75417 1820-2590): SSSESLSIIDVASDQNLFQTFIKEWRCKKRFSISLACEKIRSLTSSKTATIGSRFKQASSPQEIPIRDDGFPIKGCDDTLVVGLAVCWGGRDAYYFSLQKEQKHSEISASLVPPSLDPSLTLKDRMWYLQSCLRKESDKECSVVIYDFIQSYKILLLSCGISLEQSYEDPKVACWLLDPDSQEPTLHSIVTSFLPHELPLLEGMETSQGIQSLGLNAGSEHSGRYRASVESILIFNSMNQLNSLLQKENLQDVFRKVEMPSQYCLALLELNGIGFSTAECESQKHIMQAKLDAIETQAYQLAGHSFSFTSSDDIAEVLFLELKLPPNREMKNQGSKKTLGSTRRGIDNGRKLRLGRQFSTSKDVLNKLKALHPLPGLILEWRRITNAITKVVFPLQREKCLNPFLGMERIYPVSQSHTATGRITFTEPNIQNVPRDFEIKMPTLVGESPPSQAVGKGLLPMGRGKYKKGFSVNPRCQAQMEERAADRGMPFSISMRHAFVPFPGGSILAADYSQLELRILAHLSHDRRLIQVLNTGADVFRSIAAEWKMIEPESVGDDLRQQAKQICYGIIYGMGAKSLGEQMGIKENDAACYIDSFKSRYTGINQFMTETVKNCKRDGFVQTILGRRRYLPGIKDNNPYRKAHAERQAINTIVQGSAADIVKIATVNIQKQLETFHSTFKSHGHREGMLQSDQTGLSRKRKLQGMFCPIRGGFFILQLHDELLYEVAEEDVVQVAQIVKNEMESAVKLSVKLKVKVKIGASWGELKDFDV

The molecule `Cc1cc(C(F)(F)F)cc(N2C(=O)C[C@@H]3CN(CCN4CCN(C)CC4)c4c(C)cccc4N(C)C(=O)[C@H]32)n1` [Example 1, (3aR,11aS)-6,10-Dimethyl-1-(6-methyl-4-(trifluoromethyl)pyridin-2-yl)-5-(2-(4-methylpiperazin-1-yl)ethyl)-1,3a,4,5,10,11a-hexahydro-2H-benzo[b]pyrrolo[2,3-f][1,4]diazocine-2,11(3H)-dione] gave a pKi of 8.90.

(Values after patent US20240425511A1, “HETEROCYCLIC COMPOUNDS FOR USE IN THE TREATMENT OF CANCER” (ARTIOS PHARMA LIMITED, priority 2021, published 2024).)
